Experimental findings from the supplement of paper PMC10307832 are described below.

Common to all, as to assay: relative viability (nuclei count vs DMSO), 5 days (fraction); higher = more cells survive
Compound in the test “Sulindac + Dasatinib”: CC1=C(CC(=O)O)c2cc(F)ccc2/C1=C\c1ccc([S+](C)[O-])cc1 [Sulindac] + Cc1nc(Nc2ncc(C(=O)Nc3c(C)cccc3Cl)s2)cc(N2CCN(CCO)CC2)n1 [Dasatinib] (partner 0.075 µM)
The gist of the method:
(§1)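 Each reported value is a median over duplicate plates. It expresses relative viability: treated-well nuclei count divided by vehicle-well nuclei count. Lung cancer cell lines in 1536-well plates were dosed by pin tool a day after seeding, alone with one drug or with a fixed anchor-drug dose plus five library-drug doses (not always all listed) in √10 steps, and nuclei were counted after 5 days.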

Compound in the test “Sulindac + Luminespib”: CC1=C(CC(=O)O)c2cc(F)ccc2/C1=C\c1ccc([S+](C)[O-])cc1 [Sulindac] + CCNC(=O)c1noc(-c2cc(C(C)C)c(O)cc2O)c1-c1ccc(CN2CCOCC2)cc1 [Luminespib] (partner 0.01 µM)
The gist of the method:
as §1

Compound in test [1]: CN[C@@H]1C[C@H]2O[C@@](C)([C@@H]1OC)n1c3ccccc3c3c4c(c5c6ccccc6n2c5c31)C(=O)NC4 [Staurosporine] + CC1(C)CCC(c2ccc(Cl)cc2)=C(CN2CCN(c3ccc(C(=O)NS(=O)(=O)c4ccc(N[C@H](CCN5CCOCC5)CSc5ccccc5)c(S(=O)(=O)C(F)(F)F)c4)cc3)CC2)C1 [Navitoclax] (partner 0.5 µM)
An outline of the steps:
as §1

Compound in test [2]: CN[C@@H]1C[C@H]2O[C@@](C)([C@@H]1OC)n1c3ccccc3c3c4c(c5c6ccccc6n2c5c31)C(=O)NC4 [Staurosporine] + Cc1nc(NC(=O)N2CCC[C@H]2C(N)=O)sc1-c1ccnc(C(C)(C)C(F)(F)F)c1 [Alpelisib] (partner 2 µM)
The gist of the method:
as §1

For UMC-11, the relative viability was found to be 0.613 in the test with Sulindac + Dasatinib (first compound 0.08 µM); 0.531 with Sulindac + Dasatinib (first compound 0.253 µM); 0.362 with Sulindac + Dasatinib (first compound 0.8 µM); 0.46 with Sulindac + Dasatinib (first compound 2.53 µM); 0.507 in the test with Sulindac + Dasatinib (first compound 8 µM); 1.27 with Sulindac + Luminespib (first compound 0.08 µM). The relative viability in the test with Sulindac + Luminespib (first compound 0.253 µM) stood at 1.12; in the test with Sulindac + Luminespib (first compound 0.8 µM), 0.717; with Sulindac + Luminespib (first compound 2.53 µM), 1.01; with Sulindac + Luminespib (first compound 8 µM), 1.13; in test [1] (first compound 0.005 µM) it was 0.265; in test [1] (first compound 0.01581 µM) it was 0.158. For the same cell line, the relative viability in test [1] (first compound 0.05 µM) came to 0.141; in test [1] (first compound 0.1581 µM), 0.106; in test [1] (first compound 0.5 µM), 0.103; in test [2] (first compound 0.005 µM) it was 0.882; in test [2] (first compound 0.01581 µM) it was 0.427; in test [2] (first compound 0.05 µM) it was 0.461. For the same cell line, the figures for the relative viability in test [2] (first compound 0.1581 µM) and in test [2] (first compound 0.5 µM) were 0.145 and 0.0643, respectively.
